Measurements reported in US20170007554A1, “MEDICINE FOR PREVENTING ISCHEMIC DISEASES” (JX NIPPON OIL & ENERGY CORPORATION, priority 2014, published 2017).

Tested on: RGC-5 cells
Experiment: Cytoprotective action under OGD stress (dead cell rate, nuclear staining)
Type: cell-based
Details: no OGD stress
Method: The RGC-5 cell line is a cell line from rat retinal ganglion cells and used for in vitro tests for cell damage evaluation. The RGC-5 cell line can be cultured in accordance with the method disclosed in NAKAJIMA Y. et al., Zeaxanthin, a Retinal Carotenoid, Protects Retinal Cells against Oxidative Stress, Current Eye Research, 2009, Vol. 34, pp. 311-318.
Here, the expression OGD stress refers to a state in which the supply of oxygen and glucose is restricted.
RGC-5 cells were added at a concentration of 1×10^3 cells/well to a DMEM medium containing glucose […] that was concentrated at 4.5 times the general concentration and fetal bovine serum (FBS: 10%) of Oseanian origin that was concentrated at 10 times the general concentration, followed by culture for 24 hours. […]
Then, the mixture was washed twice with FBS-free base medium, followed by culture in DMEM medium containing high-concentration glucose […] and general-concentration FBS (1%) for 18 hours. The dead cell rate and the state of reactive oxygen species (ROS) generation were determined via nuclear staining. […] Meanwhile, the state of reactive oxygen species (ROS) generation was determined in accordance with the method disclosed in NAKAJIMA Y. et al., Zeaxanthin, a Retinal Carotenoid, Protects Retinal Cells against Oxidative Stress, Current Eye Research, 2009, Vol. 34, pp. 311-318. […]

CC1=NN(c2ccccc2)C(=O)C1 [Edaravone]
cell death in the absence of OGD stress: did not cause cell death
